pIC50: −log10 of the molar value.
Columns and labels:
[1] = molecular target: T1, protein tyrosine phosphatase 1B (PTP-1B) (Homo sapiens, UniProt P18031); test: PTP-1B inhibitory activity test in vitro; format: biochemical
T1 sequence (P18031 1-435): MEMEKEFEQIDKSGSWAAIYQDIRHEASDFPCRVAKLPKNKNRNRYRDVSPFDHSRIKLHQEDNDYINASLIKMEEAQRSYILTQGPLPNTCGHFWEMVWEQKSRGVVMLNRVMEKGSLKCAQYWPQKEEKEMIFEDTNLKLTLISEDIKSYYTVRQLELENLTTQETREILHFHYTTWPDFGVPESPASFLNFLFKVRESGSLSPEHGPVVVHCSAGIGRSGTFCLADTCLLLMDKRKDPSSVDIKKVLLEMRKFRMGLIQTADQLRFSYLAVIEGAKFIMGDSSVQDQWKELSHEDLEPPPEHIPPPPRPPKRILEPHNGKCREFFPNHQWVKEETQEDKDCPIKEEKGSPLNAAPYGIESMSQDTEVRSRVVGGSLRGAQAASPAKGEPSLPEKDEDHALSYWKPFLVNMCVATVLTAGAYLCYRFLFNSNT
Procedure, shortened: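 Compound was preincubated 10 min at room temperature with 170 μg/mL PTP-1B solution, then 1 mM pNPP substrate was added and incubated 37 °C for 30 min. Reaction stopped with 3M NaOH; absorbance read at […], with blank and compound-background controls.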

[2] = system: hyperglycemia KK-A^y mice; test: liver tissue section of hyperglycemia KK-A^y mice (HE); format: in vivo; details: FIG. 1, 10 and 20 mg/kg
Experimental: Detect the fasting glucose of male KK-A^y mice, which are 6-8 weeks with the weight of 28-32 g, and divide them into different groups according to the blood sugar level and body weight: (2) model control group, (3) which is administered by compound S13 with the dose of 1 mg/kg, (4) which is administered by compound S13 with the dose of 5 mg/kg, (5) which is administered by compound S13 with the dose of 10 mg/kg, (6) which is administered by compound S13 with the dose of 20 mg/kg, (7) which is administered by compound S28 with the dose of 1 mg/kg, (8) which is administered by compound S28 with the dose of 5 mg/kg, (9) which is administered by compound S28 with the dose of 10 mg/kg, (10) which is administered by compound S28 with the dose of 20 mg/kg, (11) which is administered by metformin with the dose of 8 g/kg, (12) which is administered by compound S13 with the dose of 2.5 mg/kg and metformin with the dose of 4 g/kg, (13) which is administered by compound S13 with the dose of 5 mg/kg and metformin with the dose of 4 g/kg, (14) which is administered by compound S28 with the dose of 2.5 mg/kg and metformin with the dose of […], (15) which is administered by compound S28 with the dose of 5 mg/kg and metformin with the dose of […]. Each group has 8 mice, and is administrated successively for 3 weeks. Model control group is given with equal amounts of 0.5% CMC-Na. […]

HMG-CoA reductase = molecular target: T2, HMG-CoA reductase (Homo sapiens, UniProt P04035); test: HMG-CoA reductase inhibitory activity test in vitro; format: biochemical
T2 sequence (P04035 426-888 limits assumed): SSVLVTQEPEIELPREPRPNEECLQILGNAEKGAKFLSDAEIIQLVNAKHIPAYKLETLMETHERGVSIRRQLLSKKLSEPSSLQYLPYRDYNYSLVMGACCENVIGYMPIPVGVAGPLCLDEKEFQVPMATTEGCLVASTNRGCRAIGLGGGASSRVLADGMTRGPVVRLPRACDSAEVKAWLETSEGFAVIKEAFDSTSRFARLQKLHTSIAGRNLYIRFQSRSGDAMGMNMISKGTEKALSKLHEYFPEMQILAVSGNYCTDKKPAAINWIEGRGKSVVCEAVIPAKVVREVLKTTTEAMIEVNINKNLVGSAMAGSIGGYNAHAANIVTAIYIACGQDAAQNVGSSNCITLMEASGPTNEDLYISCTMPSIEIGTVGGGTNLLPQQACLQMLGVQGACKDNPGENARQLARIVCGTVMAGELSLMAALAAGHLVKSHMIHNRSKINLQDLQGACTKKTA

Structure (SMILES) | pIC50 [1] | fat vacuole in hepatocyte (liver tissue section, HE) [2] | pIC50 (HMG-CoA reductase)
CC(C)=CCC/C(C)=C/CCC1=C[C@@H](c2cc(O)ccc2O)OC1=O [S28, (S,E)-5-(2,5-dihydroxyphenyl)-3-(4,8-dimethylnona-3,7-dien-1-yl)furan-2(5H)-one] | 5.02 | almost disappear | 5.05
CC(C)=CCC/C(C)=C/CCC1=C[C@H](c2cc(O)ccc2O)OC1=O [S13, (R,E)-5-(2,5-dihydroxyphenyl)-3-(4,8-dimethylnona-3,7-dien-1-yl)furan-2(5H)-one] | 5.05 | almost disappear | 5.10
